Laboratory results from US20240270737A1, “SMALL MOLECULAR INHIBITORS OF STING SIGNALING COMPOSITIONS AND METHODS OF USE” (STINGINN INC., priority 2021, published 2024).

Legend:
STING activation, Cxcl10 = assay: STING activation in MEFs stimulated with ISD (qPCR of Cxcl10, Western blot, confocal); type: cell-based, mouse
Description: FIG. 1E are photographs showing Western blot analysis in murine fibroblasts (MEFs) treated the same as FIG. 1A, according to an embodiment of the invention;
FIG. 1F are photographs showing confocal analysis in MEFs treated the same as FIG. 1A, according to an embodiment of the invention;
MEFs were treated with W1 and then stimulated with cytoplasmic DNA (ISD) and examined Cxcl10 expression by qPCR and STING-dependent phosphorylation of TBK1 and IRF3.
Mouse embryonic fibroblasts (MEFs) were obtained from E13.5 embryos by a standard procedure. Bone Marrow Derived Macro-phages (BMDM) were isolated from hind-limb femurs of 8-10 weeks old WT and Trex1 KO (TKO) mice. The hematopoietic cells from the bone marrow were cultured in complete DMEM (Invitrogen) including 10 ng/ml of Mouse Recombinant Colony-Stimulating Factor (M-CSF, R&D Systems) for 10 to 14 days.
Quantitative Real time PCR (qPCR) Total RNA were reverse-transcribed using M-MLV Reverse Transcriptase (Promega). Real-time PCR was performed using Taqman Gene Expression Assay (Applied Biosystems) for innate immune genes and inflammatory cytokines.

pIRF3, pSTING = assay: Western blot of pIRF3, pSTING, pTBK1 after ISD transfection in hTERT cells; type: cell-based, human
Description: FIG. 1C are photographs showing Western blot analysis of STING, phospho-TBK1 (pTBK1) and phospho-IRF3 (pIRF3) performed at 6 hours after ISD transfection with/without W1 treatment same as FIG. 1A, Mock is shown (210), ISD treatment only (220) was used as a control, according to an embodiment of the invention;
Immunoblot analysis: Equal amounts of proteins were resolved on sodium dodecyl sulfate (SDS)-Polyacrylamide gels and then transferred to polyvinylidene fluoride (PVDF) membranes (Millipore). After blocking with 5% Blocking Reagent, membranes were incubated with various primary antibodies (and appropriate secondary antibodies). The image was resolved using an enhanced chemiluminescence system ECL (Thermo Scientific) and detected by autoradiography (Kodak). Antibodies: rabbit polyclonal antibody against STING was developed in our laboratory as described previously in Ishikawa et al, 2008; other antibodies were obtained from following sources: β-actin (Sigma Aldrich), p-IRF3 (Cell Signaling), IRF3 (Santa Cruz Biotechnology), p-p65 (Cell Signaling), p65 (Cell Signaling), p-TBK1 (Cell Signaling), TBK1 (Abcam), cGAS (Cell Signaling).

[1] = test system: IRF3 translocation induced by dsDNA (ISD); assay: IRF3 translocation inhibition, confocal/immunofluorescence after ISD transfection; type: cell-based; details: Homo sapiens, % means blockage of IRF3 translocation induced by dsDNA (ISD)
Description: Inhibition of IFNβ expression was measured by Luciferase induction at 24 hours after transfection of ISD. […]. […] FIG. 3H qPCR of IFNβ 1 performed in MEFs treated same as in FIG. 3A. FIG. 3I qPCR of CCL5 performed in MEFs treated same as in FIG. 3A.
(§1) Immunofluorescence Microscopy: Cells were cultured and treated in their appropriate media on Lab-Tek II chamber slides. Cell were fixed with 4% paraformaldehyde for 15 minutes in at 37° C. and permeabilized with 0.05% Triton X-100 for 5 minutes at room temperature. Immunostaining was performed with rabbit-anti-STING polyclonal, rabbit-anti-IRF3 (Santa Cruz Biotechnology) or rabbit-anti-p65 (Cell Signaling) followed by fluorescence conjugated secondary antibodies (FITC-goat-anti-rabbit) (Invitrogen).

STING trafficking = assay: Confocal analysis of STING trafficking in hTERT cells; type: cell-based, human; details: 6 hours after ISD transfection
Description: FIG. 1D are photographs showing confocal analysis for STING trafficking was performed at 6 hours after ISD transfection with/without W1, treatment same as FIG. 1A, according to an embodiment of the invention;
as §1

**Q.** `Cc1cc([N+](=O)[O-])ccc1S(=O)(=O)Nc1nc2cc(C(F)(F)F)ccc2[nH]1` [Compound W1, 2-methyl-4-nitro-N-[5-(trifluoromethyl)-1H-1,3-benzodiazol-2-yl]benzene-1-sulfonamide] was tested. Which “production of STING-inducible cytokine Cxcl10 in response to ISD” value (STING activation, Cxcl10) did it give?
**A.** dramatically decreased

**Q.** And the inhibition at 10 µM (pIRF3, pSTING; Homo sapiens)?
**A.** < 10%

**Q.** And the “STING phosphorylation and TBK1 and IRF3 phosphorylation” value (pIRF3, pSTING; hTERT cells, 6 hours after ISD transfection)?
**A.** robustly prevented

**Q.** And the inhibition at 25 µM [1]?
**A.** 40 to 50%

**Q.** What about the STING trafficking (STING trafficking) of the same compound?
**A.** effectively preventing STING trafficking
